In the supplement of paper PMC10307832:

Tests used:
Assay in all cases: relative viability (nuclei count vs DMSO), 5 days (fraction); higher = more cells survive
Cediranib + Tozasertib = compound: COc1cc2c(Oc3ccc4[nH]c(C)cc4c3F)ncnc2cc1OCCCN1CCCC1 [Cediranib] + Cc1cc(Nc2cc(N3CCN(C)CC3)nc(Sc3ccc(NC(=O)C4CC4)cc3)n2)n[nH]1 [Tozasertib] (partner 0.1 µM)
In short: (§1)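 For relative viability, nuclei counts in treated wells were divided by those in vehicle wells. Lung cancer cell lines had been pin-tool dosed in 1536-well plates the day after seeding and cultured for 5 days, then fixed and stained in one step (final 0.05% Triton X-100, 1% formaldehyde, 1 ug/ml Hoechst) and imaged at 4×. Doses were one drug alone or a fixed anchor-drug dose plus five library-drug doses (not always all listed) in √10 steps, and values are duplicate-plate medians.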

Decitabine + Bortezomib = compound: Nc1ncn([C@H]2C[C@H](O)[C@@H](CO)O2)c(=O)n1 [Decitabine] + CC(C)C[C@H](NC(=O)[C@H](Cc1ccccc1)NC(=O)c1cnccn1)B(O)O [Bortezomib] (partner 0.002 µM)
In short: as §1

Decitabine + Crizotinib = compound: Nc1ncn([C@H]2C[C@H](O)[C@@H](CO)O2)c(=O)n1 [Decitabine] + C[C@@H](Oc1cc(-c2cnn(C3CCNCC3)c2)cnc1N)c1c(Cl)ccc(F)c1Cl [Crizotinib] (partner 1 µM)
In short: as §1

[1] = compound: O=C(C[C@H]1NCCC[C@@H]1O)Cn1cnc2cc(Br)c(Cl)cc2c1=O (racemic) [Halofuginone] + O=C(CCCCCCC(=O)Nc1ccccc1)NO [Vorinostat] (partner 1 µM)
In short: as §1

Cell Line	relative viability (Cediranib + Tozasertib; first compound 0.04 µM)	relative viability (Cediranib + Tozasertib; first compound 0.1265 µM)	relative viability (Cediranib + Tozasertib; first compound 0.4 µM)	relative viability (Cediranib + Tozasertib; first compound 1.265 µM)	relative viability (Cediranib + Tozasertib; first compound 4 µM)	relative viability (Decitabine + Bortezomib; first compound 0.04 µM)	relative viability (Decitabine + Bortezomib; first compound 0.1265 µM)	relative viability (Decitabine + Bortezomib; first compound 0.4 µM)	relative viability (Decitabine + Bortezomib; first compound 1.265 µM)	relative viability (Decitabine + Bortezomib; first compound 4 µM)	relative viability (Decitabine + Crizotinib; first compound 0.04 µM)	relative viability (Decitabine + Crizotinib; first compound 0.1265 µM)	relative viability (Decitabine + Crizotinib; first compound 0.4 µM)	relative viability (Decitabine + Crizotinib; first compound 1.265 µM)	relative viability (Decitabine + Crizotinib; first compound 4 µM)	relative viability ([1]; first compound 0.001 µM)	relative viability ([1]; first compound 0.003162 µM)	relative viability ([1]; first compound 0.01 µM)	relative viability ([1]; first compound 0.03162 µM)	relative viability ([1]; first compound 0.1 µM)
201T	1.1	1.19	0.875	0.966	0.889	1.11	1.09	1.15	1	1.03	1.02	1	1.15	0.965	0.914	1.01	0.971	0.964	0.909	0.776
A549											0.498	0.658	0.348	0.13	0.102					
A-427	0.208		0.198	0.237	0.217	0.769	0.571	0.247	0.271	0.242	0.489	0.403	0.316	0.205	0.165	0.89	0.891	0.828	0.827	0.807
ABC-1	0.161	0.179	0.186		0.191	0.286	0.239	0.315	0.23	0.228	0.771	0.907	0.627	0.728	0.542	1.11	1.08	1.04	1.24	1.04
BEN	0.446		0.554		0.627	0.779	0.779	0.539	0.427	0.481	0.914	0.786	0.623	0.469	0.453	0.55	0.541	0.55	0.587	0.572
CAL-12T	0.333	0.333	0.29	0.397	0.293	0.828	1.01	0.535	0.558	0.543	0.612	0.664	0.174	0.416	0.222	0.876	0.897	0.746	0.651	0.445
COR-L23	0.182	0.192	0.19	0.264	0.183	0.695	0.703	0.42	0.316	0.234	0.332	0.33	0.332	0.22	0.184	0.602	0.295	0.493	0.301	0.106
COR-L 105	0.392	0.364	0.343	0.329	0.388	0.463	0.65	0.378	0.494	0.422	0.596	0.633	0.573	0.356	0.319	1.04	0.872	0.896	0.774	0.719
Calu-6						0.853	0.67	0.43	0.373	0.321	0.495	0.478	0.283	0.227	0.224					
